Consider one compound from patent publication US8415271B2, “Biofertilizer formulation” (priority 2007, dated 2013).

The subject of this assay is wheat. As to the kind of experiment: Field grown wheat, harvest parameters. It counts as in vivo, Triticum aestivum. The following applies: seeds not coated. How it is done:
Effect of the psychrorphilic biofertilizer was tested on field conditions on wheat cultivation in Victoria City, Temuco, Chile. Wheat seeds were disinfected and coated with the psychrophilic bacterial biofertilizer of the present invention as described in Example 3. Control seeds were disinfected and treated with water. A field of one hectare was directly sowed with the seeds using a random block experimental design with four repetitions per treatments. Further, total yield after the harvest was measured and the yield per unit area of the crop field was calculated.

For `O=P(=O)OP(=O)=O` [Strain P2O5, P2O5], the “Weight 1000 grains” value reads like this: (50 Kg P2O5/ha) 33 ± 3 g; (100 Kg P2O5/ha) 37 ± 3 g; (150 Kg P2O5/ha) 35 ± 3 g. Further, the Yield (50 Kg P2O5/ha) was 4.8 ± 0.5 ton/ha, the Yield (100 Kg P2O5/ha) worked out at 5.1 ± 0.3 ton/ha and the Yield (150 Kg P2O5/ha) is recorded as 5.0 ± 0.4 ton/ha.
